Measured values as given in publication PMC7484342 (Journal of molecular biology, 2020).
pIC50, pKi: −log10 of the molar value.

What was measured:
hVKORL = target: T1, hVKORL (Homo sapiens, UniProt Q8N0U8); assay: Cell-based activity assay
T1 sequence (Q8N0U8 1-176): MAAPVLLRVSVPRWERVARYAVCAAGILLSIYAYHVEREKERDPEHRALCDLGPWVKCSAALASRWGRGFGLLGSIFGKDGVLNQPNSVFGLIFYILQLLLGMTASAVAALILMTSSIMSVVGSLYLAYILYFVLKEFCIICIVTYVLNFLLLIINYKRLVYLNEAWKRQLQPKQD

purified TrVKORL = target: T2, purified TrVKORL (Takifugu rubripes, UniProt Q6TEK8); assay: Fluorometric activity assay of purified TrVKORL; type: biochemical
T2 sequence (Q6TEK8 1-175): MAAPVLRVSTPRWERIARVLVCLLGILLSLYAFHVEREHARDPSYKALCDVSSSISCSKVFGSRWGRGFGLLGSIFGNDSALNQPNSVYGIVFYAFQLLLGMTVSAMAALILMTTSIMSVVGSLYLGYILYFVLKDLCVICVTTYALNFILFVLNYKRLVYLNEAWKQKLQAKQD

purified hVKORL = target: T3, purified hVKORL (Homo sapiens, UniProt Q8N0U8); assay: Fluorometric activity assay of purified hVKORL; type: biochemical; settings: IC50, purified and analyzed in LMNG, GSH, 250 nM enzyme, KO as substrate
T3 sequence (Q8N0U8 1-176): T1 sequence (Q8N0U8 1-176)

[1] = target: purified complex of hVKOR and warfarin (Homo sapiens, UniProt Q9BQB6); settings: DTT as reductant
Chain of purified complex of hVKOR and warfarin (Q9BQB6 whole entry, one chain of several): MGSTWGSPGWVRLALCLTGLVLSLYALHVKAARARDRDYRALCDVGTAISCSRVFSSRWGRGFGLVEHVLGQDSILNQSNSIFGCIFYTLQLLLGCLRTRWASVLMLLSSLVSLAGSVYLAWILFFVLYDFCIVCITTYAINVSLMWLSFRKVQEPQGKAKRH

[2] = target: T4, Takifugu rubripes VKOR-like (TrVKORL) (Takifugu rubripes, UniProt Q6TEK8); assay: Cell-based activity assay
T4 sequence (Q6TEK8 1-175): T2 sequence (Q6TEK8 1-175)

CC(=O)CC(c1ccccc1)c1c(O)c2ccccc2oc1=O (centres unmarked) [warfarin]
pIC50 (hVKORL): 6.62 | pIC50 (purified TrVKORL; IC50 of warfarin, in presence of GSH, enzyme concentration 500 nM, KO or K): 6.59 to 6.60 | pKi (purified TrVKORL; Ki^app estimated from the Morrison equation, GSH, K as substrate, low enzyme concentration): 7.54 | pIC50 (purified TrVKORL; apparent IC50, GSH as reductant, 500 nM TrVKORL, K as substrate): ~6.60 | pIC50 (purified TrVKORL; apparent IC50, GSH as reductant, 500 nM TrVKORL, KO as substrate): ~6.59 | pIC50 (purified TrVKORL; warfarin IC50, DTT as reductant, 500 nM enzyme, K as substrate): 5.42 | pIC50 (purified TrVKORL; warfarin IC50, DTT as reductant, 500 nM enzyme, KO as substrate): 5.33 | pIC50 (purified hVKORL): 6.92 | warfarin inhibition (in words) [1]: poorly inhibited | pIC50 [2]: 7.01

CC(=CCC12OC1(C)C(=O)c1ccccc1C2=O)CCCC(C)CCCC(C)CCCC(C)C (centres unmarked) [KO, vitamin K epoxide]
decrease of KM with GSH reduction compared to DTT reduction (purified TrVKORL; TrVKORL, KO as substrate): 3.4 fold
